Measured values taken from ChEMBL document CHEMBL5154678, “Lysine Stapling Screening Provides Stable and Low Toxic Cationic Antimicrobial Peptides Combating Multidrug-Resistant Bacteria In Vitro and In Vivo” (J Med Chem, 2022).
In brackets after ≈: the same amount, converted by molar mass. Starred links: 1 amine or outer side, 2 acyl side, 3 side chain; linkers in the order of their positions; H or OH if unused. Positions of bridges follow the written chain, without caps; N, C: chain ends. Non-standard residues stand in square brackets, D forms with d. Residues, ends and D or L forms follow the SMILES beside them. X1 = O=C([C@H](CCCCNCC=[*:3])N[*:1])[*:2]

What was measured:
Listeria monocytogenes = experiment: Antibacterial activity against Listeria monocytogenes assessed as inhibition of bacterial growth incubated for 16 hrs by broth microdilution method; format: functional
Escherichia coli [1] = experiment: Antibacterial activity against cephalosporin-resistant Escherichia coli BNCC 133264 assessed as inhibition of bacterial growth incubated for 16 hrs by broth microdilution method; format: functional
Erythrocyte = experiment: Hemolytic activity against human RBC assessed as concentration required to cause 10% hemolysis; format: toxicity, cell-based
Escherichia coli [2] = experiment: Antibacterial activity against Escherichia coli BNCC 133264 assessed as inhibition of bacterial growth incubated for 16 hrs by broth microdilution method; format: functional
Staphylococcus aureus [3] = experiment: Antibacterial activity against Staphylococcus aureus BNCC 186335 assessed as inhibition of bacterial growth incubated for 16 hrs by broth microdilution method; format: functional
Staphylococcus aureus [4] = experiment: Antibacterial activity against methicillin-resistant Staphylococcus aureus assessed as inhibition of bacterial growth incubated for 16 hrs by broth microdilution method; format: functional
HEK-293T = experiment: Cytotoxicity against human HEK293T cells assessed as cell survival rate at 8 to 128 Ug/ml incubated for 24 hrs by MTT assay relative to control; format: toxicity, cell-based; details: dose 8-128 µg/ml
Pseudomonas aeruginosa = experiment: Antibacterial activity against Pseudomonas aeruginosa BNCC 125486 assessed as inhibition of bacterial growth incubated for 16 hrs by broth microdilution method; format: functional

Row | SMILES | MIC (Listeria monocytogenes) | MIC (Escherichia coli [1]) | MHC (Erythrocyte) | MIC (Escherichia coli [2]) | MIC (Staphylococcus aureus [3]) | MIC (Staphylococcus aureus [4]) | Activity (HEK-293T) | MIC (Pseudomonas aeruginosa)
1 | CC[C@H](C)[C@H](NC(=O)[C@@H]1CCCCNC/C=C/CNCCCC[C@H](NC(=O)[C@H](CC(C)C)NC(=O)[C@@H](NC(=O)[C@H](CO)NC(=O)CNC(=O)[C@H](Cc2ccccc2)NC(=O)[C@@H](N)Cc2ccccc2)C(C)C)C(=O)N[C@@H](CC(C)C)C(=O)N[C@@H]([C@@H](C)CC)C(=O)N2CCC[C@H]2C(=O)N1)C(=O)N[C@@H](CC(C)C)C(N)=O (H-FFGSVL[X1]LIP[X1]IL-NH2; staple (E) 7-11) | 4 µg/mL (≈ 2.62 µM) | 128 µg/mL (≈ 83.9 µM) | 32 µg/mL | 64 µg/mL (≈ 41.9 µM) | 4 µg/mL (≈ 2.62 µM) | 4 µg/mL (≈ 2.62 µM) | Toxic | > 128 µg/mL
2 | CC[C@H](C)[C@H](NC(=O)[C@H](CCCCN)NC(=O)[C@@H]1CCCN1C(=O)[C@@H](NC(=O)[C@H](CC(C)C)NC(=O)[C@H](CCCCN)NC(=O)[C@H](CC(C)C)NC(=O)[C@@H](NC(=O)[C@H](CO)NC(=O)CNC(=O)[C@H](Cc1ccccc1)NC(=O)[C@@H](N)Cc1ccccc1)C(C)C)[C@@H](C)CC)C(=O)N[C@@H](CC(C)C)C(N)=O (H-FFGSVLKLIPKIL-NH2) | 2 µg/mL (≈ 1.36 µM) | 32 µg/mL (≈ 21.7 µM) | 64 µg/mL | 64 µg/mL (≈ 43.4 µM) | 2 µg/mL (≈ 1.36 µM) | 2 µg/mL (≈ 1.36 µM) |  | > 128 µg/mL
3 | CN[C@H](CC(C)C)C(=O)N[C@H]1C(=O)N[C@@H](CC(N)=O)C(=O)N[C@H]2C(=O)N[C@H]3C(=O)N[C@H](C(=O)N[C@H](C(=O)O)c4cc(O)cc(O)c4-c4cc3ccc4O)[C@H](O)c3ccc(c(Cl)c3)Oc3cc2cc(c3O[C@@H]2O[C@H](CO)[C@@H](O)[C@H](O)[C@H]2O[C@H]2C[C@](C)(N)[C@H](O)[C@H](C)O2)Oc2ccc(cc2Cl)[C@H]1O [VANCOMYCIN] |  | > 128 µg/mL |  | > 128 µg/mL |  |  |  | > 128 µg/mL
4 | CC[C@H](C)[C@H](NC(=O)[C@@H]1CCCCNC/C=C/CNCCCC[C@H](NC(=O)[C@@H]2CCCN2)C(=O)N[C@@H]([C@@H](C)CC)C(=O)N[C@@H](CC(C)C)C(=O)N[C@@H](CC(N)=O)C(=O)N1)C(=O)N[C@@H](CC(C)C)C(=O)NCC(=O)N[C@@H](CCCCN)C(=O)N[C@H](C(=O)N[C@@H](CC(C)C)C(=O)N[C@@H](CCCNC(=N)N)C(=O)N[C@@H](CC(C)C)C(=O)N[C@@H](C)C(=O)N[C@@H](C)C(=O)N[C@@H](C)C(=O)N[C@@H](Cc1ccccc1)C(=O)N[C@@H](CCCCN)C(N)=O)[C@@H](C)CC (H-P[X1]ILN[X1]ILGKILRLAAAFK-NH2; staple (E) 2-6) | 4 µg/mL (≈ 1.85 µM) | 16 µg/mL (≈ 7.41 µM) | 16 µg/mL | 16 µg/mL (≈ 7.41 µM) | 4 µg/mL (≈ 1.85 µM) | 4 µg/mL (≈ 1.85 µM) | Toxic | 128 µg/mL (≈ 59.3 µM)
5 | CC(C)C[C@H](NC(=O)[C@H](C)NC(=O)[C@H](CCCCN)NC(=O)[C@H](C)NC(=O)[C@H](C)NC(=O)CNC(=O)[C@H](CCCCN)NC(=O)[C@H](CC(C)C)NC(=O)[C@H](CC(C)C)NC(=O)[C@H](CC(=O)O)NC(=O)[C@H](CCCCN)NC(=O)[C@H](Cc1ccccc1)NC(=O)CN)C(=O)N[C@H](C(=O)N[C@@H](CCCCN)C(=O)N[C@H](C(=O)N[C@H](C(=O)N[C@@H](CC(C)C)C(=O)N[C@@H](Cc1ccccc1)C(N)=O)C(C)C)[C@@H](C)O)C(C)C [Ascaphin-8] (H-GFKDLLKGAAKALVKTVLF-NH2) | 2 µg/mL (≈ 0.991 µM) | 32 µg/mL (≈ 15.9 µM) | 32 µg/mL | 4 µg/mL (≈ 1.98 µM) | 2 µg/mL (≈ 0.991 µM) | 16 µg/mL (≈ 7.93 µM) | Toxic | 16 µg/mL (≈ 7.93 µM)
6 | CCN1CCN(C(=O)N[C@@H](C(=O)N[C@@H]2C(=O)N3C(C(=O)[O-])=C(CSc4nnnn4C)CS[C@H]23)c2ccc(O)cc2)C(=O)C1=O.[Na+] [CEFOPERAZONE SODIUM] | 8 µg/mL | > 128 µg/mL |  | 0.125 µg/mL | 0.5 µg/mL | > 128 µg/mL |  | 4 µg/mL
7 | CC[C@H](C)[C@H](NC(=O)[C@H](CCCCN)NC(=O)[C@H](CCCNC(=N)N)NC(=O)[C@@H](NC(=O)[C@H](CC(C)C)NC(=O)[C@H](CCCCN)NC(=O)[C@H](CC(C)C)NC(=O)[C@@H](NC(=O)[C@H](CCCCN)NC(=O)CNC(=O)[C@H](Cc1ccccc1)NC(=O)[C@@H](N)Cc1ccccc1)C(C)C)[C@@H](C)CC)C(=O)N[C@@H](Cc1ccccc1)C(N)=O (H-FFGKVLKLIRKIF-NH2) | 8 µg/mL (≈ 4.97 µM) |  | 16 µg/mL | > 128 µg/mL | 64 µg/mL (≈ 39.8 µM) | 64 µg/mL (≈ 39.8 µM) |  | > 128 µg/mL
8 | CC[C@H](C)[C@H](NC(=O)[C@H](CCCCN)NC(=O)[C@H](CC(N)=O)NC(=O)[C@H](CC(C)C)NC(=O)[C@@H](NC(=O)[C@H](CCCCN)NC(=O)[C@@H]1CCCN1)[C@@H](C)CC)C(=O)N[C@@H](CC(C)C)C(=O)NCC(=O)N[C@@H](CCCCN)C(=O)N[C@H](C(=O)N[C@@H](CC(C)C)C(=O)N[C@@H](CCCNC(=N)N)C(=O)N[C@@H](CC(C)C)C(=O)N[C@@H](C)C(=O)N[C@@H](C)C(=O)N[C@@H](C)C(=O)N[C@@H](Cc1ccccc1)C(=O)N[C@@H](CCCCN)C(N)=O)[C@@H](C)CC (H-PKILNKILGKILRLAAAFK-NH2) | 4 µg/mL (≈ 1.9 µM) | 4 µg/mL (≈ 1.9 µM) | 16 µg/mL | 4 µg/mL (≈ 1.9 µM) | 2 µg/mL (≈ 0.949 µM) | 4 µg/mL (≈ 1.9 µM) |  | 4 µg/mL (≈ 1.9 µM)
9 | CC[C@H](C)[C@H](NC(=O)[C@@H]1CCCCNC/C=C/CNCCCC[C@H](NC(=O)[C@H](CC(C)C)NC(=O)[C@@H](NC(=O)[C@H](CCCCN)NC(=O)CNC(=O)[C@H](Cc2ccccc2)NC(=O)[C@@H](N)Cc2ccccc2)C(C)C)C(=O)N[C@@H](CC(C)C)C(=O)N[C@@H]([C@@H](C)CC)C(=O)N[C@@H](CCCNC(=N)N)C(=O)N1)C(=O)N[C@@H](Cc1ccccc1)C(N)=O (H-FFGKVL[X1]LIR[X1]IF-NH2; staple (E) 7-11) | 8 µg/mL (≈ 4.82 µM) | 128 µg/mL (≈ 77.1 µM) | 16 µg/mL | 128 µg/mL (≈ 77.1 µM) | 16 µg/mL (≈ 9.64 µM) | 32 µg/mL (≈ 19.3 µM) | Toxic | > 128 µg/mL
10 | CC(C)C[C@H](NC(=O)[C@H](C)NC(=O)[C@@H]1CCCCNC/C=C/CNCCCC[C@H](NC(=O)[C@H](CC(C)C)NC(=O)[C@H](CC(C)C)NC(=O)[C@H](CC(=O)O)NC(=O)[C@H](CCCCN)NC(=O)[C@H](Cc2ccccc2)NC(=O)CN)C(=O)NCC(=O)N[C@@H](C)C(=O)N[C@@H](C)C(=O)N1)C(=O)N[C@H](C(=O)N[C@@H](CCCCN)C(=O)N[C@H](C(=O)N[C@H](C(=O)N[C@@H](CC(C)C)C(=O)N[C@@H](Cc1ccccc1)C(N)=O)C(C)C)[C@@H](C)O)C(C)C (H-GFKDLL[X1]GAA[X1]ALVKTVLF-NH2; staple (E) 7-11) | 8 µg/mL (≈ 3.86 µM) | 32 µg/mL (≈ 15.5 µM) | 32 µg/mL | 16 µg/mL (≈ 7.73 µM) | 2 µg/mL (≈ 0.966 µM) | 8 µg/mL (≈ 3.86 µM) |  | 32 µg/mL (≈ 15.5 µM)
11 | CC[C@H](C)[C@@H]1NC(=O)[C@@H](NC(=O)[C@H](CC(N)=O)NC(=O)[C@H](CC(C)C)NC(=O)[C@@H](NC(=O)[C@H](CCCCN)NC(=O)[C@@H]2CCCN2)[C@@H](C)CC)CCCCNC/C=C/CNCCCC[C@@H](C(=O)N[C@H](C(=O)N[C@@H](CC(C)C)C(=O)N[C@@H](CCCNC(=N)N)C(=O)N[C@@H](CC(C)C)C(=O)N[C@@H](C)C(=O)N[C@@H](C)C(=O)N[C@@H](C)C(=O)N[C@@H](Cc2ccccc2)C(=O)N[C@@H](CCCCN)C(N)=O)[C@@H](C)CC)NC(=O)CNC(=O)[C@H](CC(C)C)NC1=O (H-PKILN[X1]ILG[X1]ILRLAAAFK-NH2; staple (E) 6-10) | 2 µg/mL (≈ 0.926 µM) | 8 µg/mL (≈ 3.71 µM) | 16 µg/mL | 4 µg/mL (≈ 1.85 µM) | 2 µg/mL (≈ 0.926 µM) | 4 µg/mL (≈ 1.85 µM) | Non-Toxic | 16 µg/mL (≈ 7.41 µM)
12 | CC(C)C[C@@H]1NC(=O)[C@H](C)NC(=O)[C@@H](NC(=O)[C@H](C)NC(=O)[C@H](C)NC(=O)CNC(=O)[C@H](CCCCN)NC(=O)[C@H](CC(C)C)NC(=O)[C@H](CC(C)C)NC(=O)[C@H](CC(=O)O)NC(=O)[C@H](CCCCN)NC(=O)[C@H](Cc2ccccc2)NC(=O)CN)CCCCNC/C=C/CNCCCC[C@@H](C(=O)N[C@H](C(=O)N[C@H](C(=O)N[C@@H](CC(C)C)C(=O)N[C@@H](Cc2ccccc2)C(N)=O)C(C)C)[C@@H](C)O)NC(=O)[C@H](C(C)C)NC1=O (H-GFKDLLKGAA[X1]ALV[X1]TVLF-NH2; staple (E) 11-15) | 4 µg/mL (≈ 1.93 µM) | 16 µg/mL (≈ 7.73 µM) | 32 µg/mL | 8 µg/mL (≈ 3.86 µM) | 2 µg/mL (≈ 0.966 µM) | 8 µg/mL (≈ 3.86 µM) | Toxic | 128 µg/mL (≈ 61.8 µM)
